Results as given in patent US20040086880A1, “Method of producing nucleic acid molecules with reduced secondary structure” (priority 1999, published 2004).

Target: T1, Bst DNA polymerase (Geobacillus stearothermophilus, UniProt P52026)
T1 construct: purchased New England Biolabs
T1 sequence (P52026 290-876 limits assumed): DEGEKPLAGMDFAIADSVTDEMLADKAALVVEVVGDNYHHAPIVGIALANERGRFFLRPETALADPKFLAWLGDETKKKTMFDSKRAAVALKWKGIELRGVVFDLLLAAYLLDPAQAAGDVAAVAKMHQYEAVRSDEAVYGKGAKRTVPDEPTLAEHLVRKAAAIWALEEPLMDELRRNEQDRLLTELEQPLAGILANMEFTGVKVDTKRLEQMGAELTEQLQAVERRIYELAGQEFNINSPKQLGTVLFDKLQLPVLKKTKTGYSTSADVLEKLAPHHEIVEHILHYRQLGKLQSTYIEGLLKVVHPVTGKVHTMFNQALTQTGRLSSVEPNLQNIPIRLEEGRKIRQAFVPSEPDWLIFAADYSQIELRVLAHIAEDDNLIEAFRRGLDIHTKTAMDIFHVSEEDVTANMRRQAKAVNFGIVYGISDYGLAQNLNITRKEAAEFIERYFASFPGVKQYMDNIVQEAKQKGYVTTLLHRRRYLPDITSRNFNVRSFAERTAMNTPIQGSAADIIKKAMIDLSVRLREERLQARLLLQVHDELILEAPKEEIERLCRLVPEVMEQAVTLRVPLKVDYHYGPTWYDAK
Test: Single nucleotide extension of 6-mer primers at varying dNTP concentration
Type: biochemical
Settings: for extension efficiency of 6-mer primer compared with natural dNTP: dNTP 0.5 microM to 130 microM, 45° C., 8 hours
Protocol: To further assess the incorporation efficiency of the modified nucleotides by Bst DNA polymerase, the efficiency for a single nucleotide extension reaction was determined using two 6-mer primers in the presence of varying concentrations of dATP, 2-amino-2′-deoxyadenosine-5′-triphosphate, dTTP or 2-thiothymidine-5′-triphosphate (illustrated as 2-thioTTP) (FIGS. 3A and 4A). For this study, the reaction mixtures contained: 20 mM Tris-Cl (pH 8.8 @ 25° C.), 10 mM KCl, 10 mM (NH4)2SO4, 2 mM MgSO4, 0.1% Triton-X100, 500 nanoM 6-mer primer, 20 nanoM 30-mer DNA template, 0.8 units/microL (˜70 nanoM) Bst DNA polymerase and a dNTP concentration ranging from 0.5 microM to 130 microM. The reaction mixtures were incubated at 45° C. for 8 hours and separated by electrophoresis on 20% denaturing (7M urea) polyacrylamide gels.

| SMILES | EC50 [µM] | extension efficiency of 6-mer primer compared with natural dNTP |
| --- | --- | --- |
| Cc1cn([C@H]2C[C@H](O)[C@@H](COP(=O)(O)OP(=O)(O)OP(=O)(O)O)O2)c(=S)[nH]c1=O [2-thiothymidine-5′-triphosphate] | ~6 | very similar |
| Nc1nc(N)c2ncn([C@H]3C[C@H](O)[C@@H](COP(=O)(O)OP(=O)(O)OP(=O)(O)O)O3)c2n1 [2-amino-2′-deoxyadenosine-5′-triphosphate] | – | approximately equal efficiencies |
